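Compound exposure: 48 hours, 5 concentrations, 96-well plates. GI50 marks 50% less growth. Definition used: TGI = concentration required for complete inhibition of growth.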
What was measured:
Assay in all cases: NCI-60 cell line screen, 48 h
786-0 renal = tested on: 786-0 renal
A498 renal = tested on: A498 renal
A549 NSCLC = tested on: A549 NSCLC
ACHN renal = tested on: ACHN renal
BT-549 breast = tested on: BT-549 breast
CAKI-1 renal = tested on: CAKI-1 renal
CCRF-CEM leukemia = tested on: CCRF-CEM leukemia
COLO 205 colon = tested on: COLO 205 colon
DU-145 prostate = tested on: DU-145 prostate
EKVX NSCLC = tested on: EKVX NSCLC
HCC-2998 colon = tested on: HCC-2998 colon
HCT-15 colon = tested on: HCT-15 colon
HL-60(TB) leukemia = tested on: HL-60(TB) leukemia
HOP-62 NSCLC = tested on: HOP-62 NSCLC
HOP-92 NSCLC = tested on: HOP-92 NSCLC
HS 578T breast = tested on: HS 578T breast
HT29 colon = tested on: HT29 colon
IGROV1 ovarian = tested on: IGROV1 ovarian
K-562 leukemia = tested on: K-562 leukemia
KM12 colon = tested on: KM12 colon
LOX IMVI melanoma = tested on: LOX IMVI melanoma
M14 melanoma = tested on: M14 melanoma
MALME-3M melanoma = tested on: MALME-3M melanoma
MCF7 breast = tested on: MCF7 breast
MDA-MB-231 breast = tested on: MDA-MB-231 breast
MDA-MB-435 = tested on: MDA-MB-435
MDA-MB-468 breast = tested on: MDA-MB-468 breast
MOLT-4 leukemia = tested on: MOLT-4 leukemia
NCI-H226 lung = tested on: NCI-H226 lung
NCI-H23 lung = tested on: NCI-H23 lung
NCI-H460 lung = tested on: NCI-H460 lung
NCI-H522 lung = tested on: NCI-H522 lung
NCI/ADR-RES ovarian = tested on: NCI/ADR-RES ovarian
OVCAR-3 ovarian = tested on: OVCAR-3 ovarian
OVCAR-4 ovarian = tested on: OVCAR-4 ovarian
OVCAR-5 ovarian = tested on: OVCAR-5 ovarian
OVCAR-8 ovarian = tested on: OVCAR-8 ovarian
PC-3 prostate = tested on: PC-3 prostate
RPMI-8226 leukemia = tested on: RPMI-8226 leukemia
RXF 393 renal = tested on: RXF 393 renal
SF-268 CNS = tested on: SF-268 CNS
SF-295 CNS = tested on: SF-295 CNS
SF-539 CNS = tested on: SF-539 CNS
SK-MEL-2 melanoma = tested on: SK-MEL-2 melanoma
SK-MEL-28 melanoma = tested on: SK-MEL-28 melanoma
SK-MEL-5 melanoma = tested on: SK-MEL-5 melanoma
SK-OV-3 ovarian = tested on: SK-OV-3 ovarian
SN12C renal = tested on: SN12C renal
SNB-19 CNS = tested on: SNB-19 CNS
SNB-75 CNS = tested on: SNB-75 CNS
SR leukemia = tested on: SR leukemia
SW-620 colon = tested on: SW-620 colon
T-47D breast = tested on: T-47D breast
TK-10 renal = tested on: TK-10 renal
U251 CNS = tested on: U251 CNS
UACC-257 melanoma = tested on: UACC-257 melanoma
UACC-62 melanoma = tested on: UACC-62 melanoma
UO-31 renal = tested on: UO-31 renal

CCCCSc1nc(Nc2ccc(/C(C)=N/NC(N)=S)cc2)c(C#N)c(-c2ccc(F)cc2)n1
GI50 (786-0 renal): 1.69 µM
TGI (786-0 renal): 3.88 µM
GI50 (A498 renal): 2.7 µM
TGI (A498 renal): 7.1 µM
GI50 (A549 NSCLC): 2.35 µM
TGI (A549 NSCLC): 7.57 µM
GI50 (ACHN renal): 0.858 µM
TGI (ACHN renal): 4.37 µM
GI50 (BT-549 breast): 6.6 µM
TGI (BT-549 breast): 28.1 µM
GI50 (CAKI-1 renal): 1.71 µM
TGI (CAKI-1 renal): 4.97 µM
GI50 (CCRF-CEM leukemia): 0.814 µM
TGI (CCRF-CEM leukemia): > 100 µM
GI50 (COLO 205 colon): 4.03 µM
TGI (COLO 205 colon): 23.1 µM
GI50 (DU-145 prostate): 3.12 µM
TGI (DU-145 prostate): 49.8 µM
GI50 (EKVX NSCLC): 3.67 µM
TGI (EKVX NSCLC): 17.2 µM
GI50 (HCC-2998 colon): 3.29 µM
TGI (HCC-2998 colon): 18.7 µM
GI50 (HCT-15 colon): 1.38 µM
TGI (HCT-15 colon): 16.8 µM
GI50 (HL-60(TB) leukemia): > 100 µM
TGI (HL-60(TB) leukemia): > 100 µM
GI50 (HOP-62 NSCLC): 2.25 µM
TGI (HOP-62 NSCLC): 5.1 µM
GI50 (HOP-92 NSCLC): 1.23 µM
TGI (HOP-92 NSCLC): 4.01 µM
GI50 (HS 578T breast): 1.71 µM
TGI (HS 578T breast): 8.14 µM
GI50 (HT29 colon): 5.89 µM
TGI (HT29 colon): > 100 µM
GI50 (IGROV1 ovarian): 12 µM
TGI (IGROV1 ovarian): 30.3 µM
GI50 (K-562 leukemia): 4.46 µM
TGI (K-562 leukemia): > 100 µM
GI50 (KM12 colon): 15.9 µM
TGI (KM12 colon): > 100 µM
GI50 (LOX IMVI melanoma): 1.88 µM
TGI (LOX IMVI melanoma): 10.1 µM
GI50 (M14 melanoma): 3.52 µM
TGI (M14 melanoma): 19.6 µM
GI50 (MALME-3M melanoma): 2.39 µM
TGI (MALME-3M melanoma): 11.5 µM
GI50 (MCF7 breast): 0.893 µM
TGI (MCF7 breast): 11.4 µM
GI50 (MDA-MB-231 breast): 1.03 µM
TGI (MDA-MB-231 breast): 4.28 µM
GI50 (MDA-MB-435): 4.13 µM
TGI (MDA-MB-435): 24.8 µM
GI50 (MDA-MB-468 breast): 2.26 µM
TGI (MDA-MB-468 breast): 8.99 µM
GI50 (MOLT-4 leukemia): 3.63 µM
TGI (MOLT-4 leukemia): > 100 µM
GI50 (NCI-H226 lung): 1.59 µM
TGI (NCI-H226 lung): 5.29 µM
GI50 (NCI-H23 lung): 1.56 µM
TGI (NCI-H23 lung): 4.69 µM
GI50 (NCI-H460 lung): 0.578 µM
TGI (NCI-H460 lung): 2.25 µM
GI50 (NCI-H522 lung): 1.92 µM
TGI (NCI-H522 lung): 7.05 µM
GI50 (NCI/ADR-RES ovarian): 1.34 µM
TGI (NCI/ADR-RES ovarian): 5.72 µM
GI50 (OVCAR-3 ovarian): 2.57 µM
TGI (OVCAR-3 ovarian): 10.1 µM
GI50 (OVCAR-4 ovarian): 1.85 µM
TGI (OVCAR-4 ovarian): 85.5 µM
GI50 (OVCAR-5 ovarian): 12.5 µM
TGI (OVCAR-5 ovarian): 50.5 µM
GI50 (OVCAR-8 ovarian): 3.85 µM
TGI (OVCAR-8 ovarian): 21.1 µM
GI50 (PC-3 prostate): 1.42 µM
TGI (PC-3 prostate): 7.02 µM
GI50 (RPMI-8226 leukemia): 3.4 µM
TGI (RPMI-8226 leukemia): > 100 µM
GI50 (RXF 393 renal): 1.97 µM
TGI (RXF 393 renal): 5.49 µM
GI50 (SF-268 CNS): 13.6 µM
TGI (SF-268 CNS): 89.3 µM
GI50 (SF-295 CNS): 1.21 µM
TGI (SF-295 CNS): 2.75 µM
GI50 (SF-539 CNS): 1.4 µM
TGI (SF-539 CNS): 4.49 µM
GI50 (SK-MEL-2 melanoma): 4.4 µM
TGI (SK-MEL-2 melanoma): 20 µM
GI50 (SK-MEL-28 melanoma): 3.83 µM
TGI (SK-MEL-28 melanoma): 17.9 µM
GI50 (SK-MEL-5 melanoma): 2.3 µM
TGI (SK-MEL-5 melanoma): 12.5 µM
GI50 (SK-OV-3 ovarian): 3.54 µM
TGI (SK-OV-3 ovarian): 9.87 µM
GI50 (SN12C renal): 11.8 µM
TGI (SN12C renal): 57 µM
GI50 (SNB-19 CNS): 2.51 µM
TGI (SNB-19 CNS): 8.31 µM
GI50 (SNB-75 CNS): 1.6 µM
TGI (SNB-75 CNS): 6.54 µM
GI50 (SR leukemia): 8.62 µM
TGI (SR leukemia): > 100 µM
GI50 (SW-620 colon): 2.7 µM
TGI (SW-620 colon): 42.1 µM
GI50 (T-47D breast): 1.19 µM
TGI (T-47D breast): 18 µM
GI50 (TK-10 renal): 2.92 µM
TGI (TK-10 renal): 7.08 µM
GI50 (U251 CNS): 1.24 µM
TGI (U251 CNS): 3.83 µM
GI50 (UACC-257 melanoma): 15.4 µM
TGI (UACC-257 melanoma): 61.8 µM
GI50 (UACC-62 melanoma): 2.91 µM
TGI (UACC-62 melanoma): 12 µM
GI50 (UO-31 renal): 0.761 µM
TGI (UO-31 renal): 3.01 µM

Reference: PubChem BioAssay (NCI)
